Results as given in US10434132B2, “Galactolipids-enriched plant extracts and the uses thereof” (ACADEMIA SINICA, priority 2013, dated 2019).

Tests used:
[1] = tested on: LPS/D-GaIN-challenged mice; experiment: LPS/D-GaIN-induced acute fulminant hepatitis in mice; assay type: in vivo
Experimental: The hepatoprotective effect in live body of compound dLGG isolated from Crassocephalum rabens (Asteraceae) in LPS/D-GaIN-induced fulminant hepatitis were investigated and compared with the hepatoprotective drug, silymarin (SM). Mice were randomly separated into four groups (n=6 per group) for treatments: vehicle; LPS/D-GaIN; 50 mg/kg of silymarin (Post-SM50); and 10 mg/kg dLGG (post-dLGG10), and all treatments were given intraperitoneally. One hour after the mice treated with 500 ng LPS and 250 μL saline containing 25 mg D-GaIN (Huang et al., 2012), the dLGG and silymarin were given intraperitoneally. Besides, the other two groups of mice were treated dLGG or silymarin continuously for three days to perform the protection effect of dLGG against LPS/D-GaIN induced fulminate hepatitis. Eight hours after LPS/D-GaIN injection, blood samples were collected through retro-orbital bleeding, and then all mice were sacrificed to collect blood samples and liver tissues.
(§1) Liver, lung and kidney tissues were fixed in 10% buffered formalin then it were embedded into paraffin. The paraffin-embedded tissues were sliced (8-μm) and stained by hematoxylin and eosin (H&E). Besides, sections of paraffin-embedded liver and lung (4-μm for thickness) were heat immobilized and deparaffinized by use of xylene and rehydrated in a graded series of ethanol with a final wash in distilled water, and finally soaked into decloaking chamber (Biocare Medical) containing Target Retrieval Solution (DakoCytomation) for antigen retrieval.
In situ detection of apoptotic cells was conducted according to the manufacturer's protocol (Chemicon). It is using terminal deoxynucleotidyl transferase to work on nucleotide sequence to […] for terminal deoxynucleotidyl transferase-mediated dUTP nick end labeling. Finally, AxioVision software (Carl Zeiss MicroImaging, Inc.) was used to analyze the number of TUNEL-positive cells.
(§2) Blood samples of tested mice were centrifuged under 4° C., 1400× g for 15 minutes to separate serum from blood. Commercial kit purchased from Randox Laboratories (UK) was used to determine the activity of aspartate aminotransferase (AST) and alanine aminotransferase (ALT) in serum supernatants.

[2] = tested on: LPS-challenged mice; experiment: LPS-induced acute inflammation and sepsis in mice; assay type: in vivo
Experimental: (§3) The plant components or the drugs were all injected an hour before administration of LPS. Another animal group was only treated with 25 mg/kg dLGG (dLGG 25 only). All groups were sacrificed after 24 hours and blood samples were collected by retro-orbital bleeding before scarification of mice and organ tissues were collected immediately.
as §1
Immunohistochemistry with liver, lung and kidney tissues were done by incubating the samples into F4/80 primary antibody for overnight respectively. After subsequent washing, each of the samples was incubated using florescent-labeled secondary antibody. Florescent images of the macrophage cell infiltration (positive F4/80 stained cell) were captured by AxioVision software (Carl Zeiss MicroImaging, Inc.) and then analyzed.
as §2
Serum levels of interleukin (IL-6) and tumor necrosis factor-alpha (TNF-α) were determined using a commercial kit from eBioscience.

[3] = tested on: hypoxia inducible factor-1α (HIF-1α); experiment: HIF-1α expression in LPS-challenged mice; assay type: in vivo; conditions: FIG. 9A, 9C; pre-treatment before LPS
Experimental: as §3

[4] = tested on: PPAR-δ; experiment: PPAR-δ expression in LPS-challenged mice; assay type: in vivo; conditions: FIG. 9B, 9D; pre-treatment before LPS
Experimental: as §3

[5] = dLGG only treatment of mice without LPS challenge; assay type: in vivo; conditions: dLGG 25 mg/kg only, no LPS, 24 hours
Experimental: as §3
Moreover, one group of mice was treated with dLGG (25 mg/kg) without LPS challenge. All the mice were sacrificed after 24 hours. Mice sera were collected to measure and compare the concentration of IL-6 and TNF-α, and the levels of AST and ALT.

[6] = tested on: B16 melanoma cells; experiment: Depigmentation assay in B16 melanoma cells; assay type: cell-based; conditions: FIG. 10B; 45 μM, vs vehicle control
Experimental: B16 melanoma cell line was obtained from ATCC (Manassas, Va.) and grown in RPMI medium 1640 (Gibco/BRL) supplemented with 10% heat-inactivated fetal bovine serum, 100 unit/mL penicillin and 100 μg/mL streptomycin, at 37° C. in a humidified 5% CO2 incubator.
B16 melanoma cell line was plated on to 10 cm culture dishes at an initial density of 1×10^5 cells dish^−1 and then cultured under the same condition described above. After 12 hours of seeding, the cells were treated by vehicle DMSO, kojic acid (KA), ethyl acetate (EA) fractions of CR's water and ethanolic extractions (Hou et al., 2007) for 72 hours. These cells were harvested by centrifuge and visually evaluated the color of these cell pellets. In another experiment, depigmentation effect of the single compound dLGG was observed and evaluated at different time points with the same procedure.

[7] = tested on: MITF; experiment: Western blot of MITF expression in B16 melanoma cells; assay type: cell-based; conditions: FIG. 10C, 45 μM dLGG
Experimental: (§4) The cellular proteins were produced according to previously published method (Chiang et al., 2005). Protein content was measured by Bradford method (Bio-Rad).
(§5) Molecular mechanism of dLGG depigmentation effect was further studied. Western blotting assay was preceded for testing the effect of dLGG on tyrosinase and MITF expression.

[8] = tested on: tyrosinase; experiment: Western blot of tyrosinase expression in B16 melanoma cells; assay type: cell-based; conditions: FIG. 10C, 45 μM dLGG
Experimental: as §4, §5

[9] = FIG. 5A, dLGG 10 mg/kg or SM 50 mg/kg i.p. 1 hour after LPS/D-GaIN, blood at 8 hours
[10] = high dose (CR-EA 50 mg/kg, dLGG 25 mg/kg) 1 hour before 10 mg/kg LPS, serum at 24 hours

Compound: CC/C=C\C/C=C\C/C=C\CCCCCCCC(=O)OC[C@H](CO[C@@H]1O[C@H](CO)[C@H](O)[C@H](O)[C@H]1O)OC(=O)CCCCCCC/C=C\C/C=C\C/C=C\CC [dLGG, 1,2,di-O-α-linolenoyl-3-O-β-galactopyranosyl-sn-glycerol]
- serum ALT level [1, 9]: significantly inhibit
- serum AST level [1, 9]: significantly inhibit
- liver histology H&E (infiltration of inflammatory cells into liver lobules, tissue destruction, erythrocyte influx) ([1]; FIG. 5B, dLGG 10 mg/kg or SM 50 mg/kg i.p. 1 hour after LPS/D-GaIN): attenuated
- numbers of apoptosis cells, TUNEL positive-stained cells in liver tissue ([1]; FIG. 5C, dLGG 10 mg/kg i.p. after LPS/D-GaIN): significantly decreased
- protection against LPS/D-GaIN-induced fulminant hepatic failure ([1]; pre-treated 1 or 10 mg/kg 1 hour before LPS/D-GaIN-challenge, data not shown): significant protection effect
- sepsis-induced acute kidney injury, renal histology (H&E) ([2]; FIG. 8A, pre-treated 1 hour before LPS, simvastatin 10 mg/kg): remarkably protective effect
- infiltration and activation of macrophages (F4/80 immunohistology staining) ([2]; FIG. 8C, pre-treated 1 hour before LPS, simvastatin 10 mg/kg): decreased infiltration and activation of macrophages
- damages in mice liver, lung and kidney caused by LPS ([2]; dLGG 25 mg/kg after LPS-challenge, data not shown): effectively reduce damages
- serum ALT decrease [2, 10]: 2.3 times
- serum AST decrease [2, 10]: 1.8 times
- serum IL-6 decrease [2, 10]: 3.5 times
- serum TNF-α decrease [2, 10]: 3.0 times
- HIF-1α expression [3]: down-regulated
- PPAR-δ expression [4]: down-regulated
- harm to mice [5]: harmfulless to mice
- depigmentation of B16 melanoma cells at different time points [6]: significantly depigmentation in a time-dependent manner
- expression of MITF (western blot) [7]: inhibit the expression
- expression of tyrosinase (western blot) [8]: inhibit the expression
